Molecules are shown by their SMILES.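 Following 48 hours of exposure in 96-well plates, responses at five concentrations were used to interpolate endpoints linearly. GI50: concentration for 50% inhibition of growth. TGI: total growth inhibition.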 Bounds are passed on as bounds.

Among the test systems are OVCAR-8 ovarian; NCI-H522 lung; CCRF-CEM leukemia; SF-295 CNS; MALME-3M melanoma; NCI/ADR-RES ovarian; HOP-62 NSCLC; RPMI-8226 leukemia; NCI-H23 lung; NCI-H226 lung.
What all share (experiment): DTP human tumour cell line panel, 48 h

Broadly, the GI50 is the concentration that inhibits growth by half. By TGI is commonly meant the concentration giving total growth inhibition. For the compound `N#Cc1cnc2cc(OC[C@@H](O)CO)c(NC(=O)CC3CSSC3)cc2c1Nc1ccc(OCc2cccc(F)c2)c(Cl)c1`, the GI50 in the test on OVCAR-8 ovarian was 0.651 µM; with NCI-H522 lung, 0.336 µM; with CCRF-CEM leukemia, 0.0603 µM; in the test on SF-295 CNS, 0.88 µM; with MALME-3M melanoma it was 0.215 µM; in the test with NCI/ADR-RES ovarian, 2.19 µM. The figures for the GI50 with HOP-62 NSCLC, in the test with RPMI-8226 leukemia and in the test on NCI-H23 lung were 0.311 µM, 0.557 µM and 0.614 µM, respectively. For the same compound, the TGI in the test on OVCAR-8 ovarian is 1.85 µM; in the test with NCI-H522 lung, 0.973 µM; in the test on CCRF-CEM leukemia it was 0.16 µM; with SF-295 CNS, 1.78 µM; with MALME-3M melanoma it was 0.938 µM; in the test with NCI/ADR-RES ovarian, 3.16 µM. Further, the TGI in the test with HOP-62 NSCLC turned out to be 0.896 µM; in the test on RPMI-8226 leukemia, 1.74 µM; with NCI-H23 lung, 1.51 µM.

On to `Cc1nc2sc(C(=O)Nc3cccc4ccccc34)c(N)c2cc1C(=O)c1ccccc1`, for which the GI50 is 7.71 µM in the test on NCI-H226 lung; 2.15 µM in the test on OVCAR-8 ovarian; 1.52 µM in the test with NCI-H522 lung; 1.66 µM in the test on CCRF-CEM leukemia; 3.86 µM with MALME-3M melanoma; 1.43 µM in the test with NCI/ADR-RES ovarian. Besides, the GI50 in the test on HOP-62 NSCLC is 2.53 µM; in the test with RPMI-8226 leukemia it was 2.46 µM; in the test on NCI-H23 lung it was 3.55 µM. Further, the TGI in the test on NCI-H226 lung, with OVCAR-8 ovarian, in the test with NCI-H522 lung, in the test with CCRF-CEM leukemia, in the test on MALME-3M melanoma and with NCI/ADR-RES ovarian was above 50 µM each time. Further, the TGI with HOP-62 NSCLC, in the test with RPMI-8226 leukemia and in the test on NCI-H23 lung was above 50 µM each time.

For `CN(C)CCCN1c2nc3ccccc3cc2Sc2cc3ccccc3nc21`, the GI50 was 1.46 µM in the test with NCI-H226 lung; 1.12 µM in the test with CCRF-CEM leukemia; 1.39 µM with SF-295 CNS; 1.33 µM in the test on MALME-3M melanoma; 1.88 µM in the test on NCI/ADR-RES ovarian; 1.29 µM in the test with HOP-62 NSCLC. Moreover, the figures for the GI50 in the test on RPMI-8226 leukemia and in the test on NCI-H23 lung were 0.45 µM and 1.4 µM, respectively. For the same compound, the TGI in the test on NCI-H226 lung turned out to be 4.03 µM; in the test on CCRF-CEM leukemia, 2.55 µM; in the test on SF-295 CNS, 2.81 µM; in the test on MALME-3M melanoma, 2.89 µM; in the test with NCI/ADR-RES ovarian, 5.39 µM; in the test with HOP-62 NSCLC it was 2.58 µM. In addition, the TGI in the test on RPMI-8226 leukemia turned out to be 2.08 µM; in the test with NCI-H23 lung, 2.86 µM.

With `NNc1cccc(/C=C/c2ccccc2)cc1=O`, the GI50 with NCI-H226 lung is 19.9 µM; in the test with OVCAR-8 ovarian, 3.74 µM; in the test on NCI-H522 lung, 8.18 µM; in the test on CCRF-CEM leukemia it was 1.36 µM; with NCI/ADR-RES ovarian it was 4.36 µM; in the test on HOP-62 NSCLC, 9.3 µM. The GI50 in the test on RPMI-8226 leukemia is 3.85 µM. For the same compound, the TGI with NCI-H226 lung was above 100 µM; in the test with OVCAR-8 ovarian it was above 100 µM; in the test with NCI-H522 lung, above 100 µM; with CCRF-CEM leukemia, 29.5 µM; in the test with NCI/ADR-RES ovarian, above 100 µM; with HOP-62 NSCLC, above 100 µM. The TGI in the test on RPMI-8226 leukemia was above 100 µM.

For the compound `NC(=O)c1cc(Br)cc(C2CCCCC2)c1O`, the GI50 was 13.6 µM in the test on NCI-H226 lung; 14.4 µM in the test with OVCAR-8 ovarian; 15.1 µM in the test on CCRF-CEM leukemia; 11.3 µM in the test on SF-295 CNS; 19.6 µM in the test on MALME-3M melanoma; 11 µM in the test with NCI/ADR-RES ovarian. Further, the GI50 with HOP-62 NSCLC was 14.1 µM; in the test with NCI-H23 lung, 15.3 µM. Also, the TGI in the test with NCI-H226 lung was determined as 31 µM; in the test on OVCAR-8 ovarian, 30 µM; in the test with CCRF-CEM leukemia, 39.8 µM; in the test with SF-295 CNS, 24.5 µM; in the test on MALME-3M melanoma, 35.9 µM; in the test on NCI/ADR-RES ovarian it was 23.9 µM. In addition, the TGI in the test with HOP-62 NSCLC stood at 28.4 µM; with NCI-H23 lung, 30.8 µM.

On to `O=C(Nc1ccc(Cl)cc1)c1ccc(NC2=C(Cl)C(=O)N(Cc3ccccc3)C2=O)cc1`, for which the GI50 in the test with NCI-H226 lung was 11.2 µM; in the test with OVCAR-8 ovarian, 7.92 µM; in the test on NCI-H522 lung, 8.55 µM; with SF-295 CNS it was 5.8 µM; in the test on NCI/ADR-RES ovarian it was 4.14 µM; in the test with HOP-62 NSCLC, 14.1 µM. The GI50 in the test with RPMI-8226 leukemia is 2.7 µM; in the test on NCI-H23 lung, 12.9 µM. The TGI is 28.4 µM in the test on NCI-H226 lung; 28.1 µM with OVCAR-8 ovarian; 30.7 µM in the test on NCI-H522 lung; 19.9 µM in the test with SF-295 CNS; 14.8 µM with NCI/ADR-RES ovarian; 27.7 µM in the test with HOP-62 NSCLC. In addition, the TGI in the test with RPMI-8226 leukemia came to 12.4 µM; with NCI-H23 lung it was 28.6 µM.

On to `O=S(=O)(NCC1CCC(CNc2ccc(Cl)cc2)CC1)c1ccc(-c2ccccc2)cc1` (centres undefined), for which the GI50 with NCI-H226 lung is 21.2 µM; in the test on OVCAR-8 ovarian, 41.4 µM; with NCI-H522 lung it was above 50 µM; in the test on CCRF-CEM leukemia, above 50 µM; with SF-295 CNS it was above 50 µM; with NCI/ADR-RES ovarian it was above 50 µM. In addition, the figures for the GI50 in the test with HOP-62 NSCLC, in the test with RPMI-8226 leukemia and in the test on NCI-H23 lung were above 50 µM, 12.5 µM and 20.6 µM, respectively. For the same compound, the TGI in the test with NCI-H226 lung, in the test with OVCAR-8 ovarian, in the test with NCI-H522 lung, in the test on CCRF-CEM leukemia, with SF-295 CNS and in the test on NCI/ADR-RES ovarian was above 50 µM each time. Besides, the TGI with HOP-62 NSCLC, in the test with RPMI-8226 leukemia and in the test on NCI-H23 lung was above 50 µM each time.

`CCOC(=O)c1[nH]c(-c2ccc(Cl)cc2)cc1-c1cccnc1`: the GI50 is 17.3 µM in the test on NCI-H226 lung; 2.51 µM in the test with OVCAR-8 ovarian; 0.391 µM in the test on CCRF-CEM leukemia; 0.453 µM in the test on SF-295 CNS; 0.511 µM with NCI/ADR-RES ovarian; 0.868 µM with HOP-62 NSCLC. Also, the GI50 with NCI-H23 lung is 2.33 µM. The TGI in the test with NCI-H226 lung, in the test on OVCAR-8 ovarian, in the test on CCRF-CEM leukemia, in the test on SF-295 CNS, with NCI/ADR-RES ovarian and in the test on HOP-62 NSCLC was above 100 µM in each case. The compound further yielded a TGI with NCI-H23 lung above 100 µM.

For `Nc1ccc2c(c1)NCCN2`, the TGI in the test on NCI-H226 lung is 52.2 µM; in the test on OVCAR-8 ovarian, above 100 µM; in the test with NCI-H522 lung it was above 100 µM; in the test on SF-295 CNS, above 100 µM; in the test on MALME-3M melanoma it was above 100 µM; in the test on NCI/ADR-RES ovarian, above 100 µM. Besides, the TGI in the test on HOP-62 NSCLC, in the test with RPMI-8226 leukemia and in the test on NCI-H23 lung was above 100 µM in each case.

The values are drawn from PubChem BioAssay (NCI).
